Assays:
Carbonic anhydrase 9 = Carbonic anhydrase 9 (Homo sapiens, UniProt Q16790)
Description: Inhibition of recombinant human carbonic anhydrase 9 preincubated for 15 mins by stopped-flow CO2 hydration assay

Carbonic anhydrase 2 = Carbonic anhydrase 2 (Homo sapiens, UniProt P00918)
Description: Inhibition of recombinant human carbonic anhydrase 2 preincubated for 15 mins by stopped-flow CO2 hydration assay

Carbonic anhydrase 14 = Carbonic anhydrase 14 (Homo sapiens, UniProt Q9ULX7)
Description: Inhibition of recombinant human carbonic anhydrase 14 preincubated for 15 mins by stopped-flow CO2 hydration assay

Carbonic anhydrase 7 = Carbonic anhydrase 7 (Homo sapiens, UniProt P43166)
Description: Inhibition of recombinant human carbonic anhydrase 7 preincubated for 15 mins by stopped-flow CO2 hydration assay

Carbonic anhydrase 1 = Carbonic anhydrase 1 (Homo sapiens, UniProt P00915)
Description: Inhibition of recombinant human carbonic anhydrase 1 preincubated for 15 mins by stopped-flow CO2 hydration assay

Carbonic anhydrase 12 = Carbonic anhydrase 12 (Homo sapiens, UniProt O43570)
Carbonic anhydrase 12, sequence (O43570 whole entry): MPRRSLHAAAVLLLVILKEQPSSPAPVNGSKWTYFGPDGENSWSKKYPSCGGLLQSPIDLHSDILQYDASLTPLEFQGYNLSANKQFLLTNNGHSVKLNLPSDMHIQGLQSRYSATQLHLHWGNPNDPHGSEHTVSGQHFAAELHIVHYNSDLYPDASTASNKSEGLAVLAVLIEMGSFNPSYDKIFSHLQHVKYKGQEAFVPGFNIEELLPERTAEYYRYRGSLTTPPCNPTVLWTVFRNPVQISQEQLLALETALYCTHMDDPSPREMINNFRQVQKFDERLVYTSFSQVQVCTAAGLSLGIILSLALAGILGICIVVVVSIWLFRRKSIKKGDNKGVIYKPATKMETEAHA
Description: Inhibition of recombinant human carbonic anhydrase 12 preincubated for 15 mins by stopped-flow CO2 hydration assay

Carbonic anhydrase 7, sequence (P43166 whole entry): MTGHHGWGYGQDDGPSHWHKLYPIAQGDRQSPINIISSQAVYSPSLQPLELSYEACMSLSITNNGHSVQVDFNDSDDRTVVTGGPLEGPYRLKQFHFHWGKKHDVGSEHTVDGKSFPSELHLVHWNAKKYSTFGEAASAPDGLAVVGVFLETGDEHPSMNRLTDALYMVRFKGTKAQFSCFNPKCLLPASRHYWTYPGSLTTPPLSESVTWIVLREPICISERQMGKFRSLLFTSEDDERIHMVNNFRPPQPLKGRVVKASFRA
Carbonic anhydrase 1, sequence (P00915 whole entry): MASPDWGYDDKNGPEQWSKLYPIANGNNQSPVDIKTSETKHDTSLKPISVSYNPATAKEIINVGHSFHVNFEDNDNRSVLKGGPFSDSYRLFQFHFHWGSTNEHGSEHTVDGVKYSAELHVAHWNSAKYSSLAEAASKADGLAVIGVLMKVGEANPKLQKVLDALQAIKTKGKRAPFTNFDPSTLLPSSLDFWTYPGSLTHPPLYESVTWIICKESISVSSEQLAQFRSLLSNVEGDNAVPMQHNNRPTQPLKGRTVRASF
Carbonic anhydrase 14, sequence (Q9ULX7 whole entry): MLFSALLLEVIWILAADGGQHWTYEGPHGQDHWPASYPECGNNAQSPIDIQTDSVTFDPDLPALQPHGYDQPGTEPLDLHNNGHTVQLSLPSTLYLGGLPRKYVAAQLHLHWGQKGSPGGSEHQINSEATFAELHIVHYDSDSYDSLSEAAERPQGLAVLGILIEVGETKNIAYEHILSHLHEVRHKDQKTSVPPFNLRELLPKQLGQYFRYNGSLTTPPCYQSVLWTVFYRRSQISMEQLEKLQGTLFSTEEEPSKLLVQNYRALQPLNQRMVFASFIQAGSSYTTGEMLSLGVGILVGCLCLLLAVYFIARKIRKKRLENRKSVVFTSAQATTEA

COC(=O)[C@H](Cc1ccccc1)NS(=O)(=O)NCC(C)C
Ki (Carbonic anhydrase 9): 0.225 µM | Ki (Carbonic anhydrase 2): 8.53 µM | Ki (Carbonic anhydrase 14): 0.0077 µM | Ki (Carbonic anhydrase 7): 0.00037 µM | Ki (Carbonic anhydrase 1): > 10 µM | Ki (Carbonic anhydrase 12): 0.0068 µM

COC(=O)[C@@H](NS(=O)(=O)NCc1ccc(F)cc1)C(C)C
Ki (Carbonic anhydrase 9): 0.0257 µM | Ki (Carbonic anhydrase 2): > 10 µM | Ki (Carbonic anhydrase 14): 0.0074 µM | Ki (Carbonic anhydrase 7): 0.00024 µM | Ki (Carbonic anhydrase 1): > 10 µM | Ki (Carbonic anhydrase 12): 0.00074 µM

COC(=O)CCNS(=O)(=O)NCc1ccc(F)cc1
Ki (Carbonic anhydrase 9): 0.0293 µM | Ki (Carbonic anhydrase 2): 8.88 µM | Ki (Carbonic anhydrase 14): 0.0227 µM | Ki (Carbonic anhydrase 7): 0.00045 µM | Ki (Carbonic anhydrase 1): > 10 µM | Ki (Carbonic anhydrase 12): 0.0744 µM

COC(=O)[C@H](Cc1ccccc1)NS(=O)(=O)NCc1ccc(F)cc1
Ki (Carbonic anhydrase 9): 0.0281 µM | Ki (Carbonic anhydrase 2): > 10 µM | Ki (Carbonic anhydrase 14): 0.0065 µM | Ki (Carbonic anhydrase 7): 0.00028 µM | Ki (Carbonic anhydrase 1): > 10 µM | Ki (Carbonic anhydrase 12): 0.00066 µM

COC(=O)CCNS(=O)(=O)NCCc1ccccc1
Ki (Carbonic anhydrase 9): 0.0265 µM | Ki (Carbonic anhydrase 2): > 10 µM | Ki (Carbonic anhydrase 14): 0.0073 µM | Ki (Carbonic anhydrase 7): 0.0022 µM | Ki (Carbonic anhydrase 1): > 10 µM | Ki (Carbonic anhydrase 12): 0.0642 µM

COC(=O)CCNS(=O)(=O)NCC(C)C
Ki (Carbonic anhydrase 9): 0.0318 µM | Ki (Carbonic anhydrase 2): > 10 µM | Ki (Carbonic anhydrase 14): 0.0063 µM | Ki (Carbonic anhydrase 7): 0.00027 µM | Ki (Carbonic anhydrase 1): > 10 µM | Ki (Carbonic anhydrase 12): 0.0047 µM

COC(=O)CCNS(=O)(=O)NC(C)c1ccccc1 (stereo unspecified)
Ki (Carbonic anhydrase 9): 0.117 µM | Ki (Carbonic anhydrase 2): > 10 µM | Ki (Carbonic anhydrase 14): 0.0075 µM | Ki (Carbonic anhydrase 7): 0.00031 µM | Ki (Carbonic anhydrase 1): > 10 µM | Ki (Carbonic anhydrase 12): 0.0052 µM

CCCCCCNS(=O)(=O)NCCC(=O)OC
Ki (Carbonic anhydrase 9): 0.0967 µM | Ki (Carbonic anhydrase 2): 7.68 µM | Ki (Carbonic anhydrase 14): 0.0061 µM | Ki (Carbonic anhydrase 7): 0.0003 µM | Ki (Carbonic anhydrase 1): > 10 µM | Ki (Carbonic anhydrase 12): 0.005 µM

COC(=O)[C@@H](NS(=O)(=O)NCC(C)C)C(C)C
Ki (Carbonic anhydrase 9): 0.191 µM | Ki (Carbonic anhydrase 2): > 10 µM | Ki (Carbonic anhydrase 14): 0.0078 µM | Ki (Carbonic anhydrase 7): 0.00039 µM | Ki (Carbonic anhydrase 1): > 10 µM | Ki (Carbonic anhydrase 12): 0.0337 µM

COC(=O)CCNS(=O)(=O)NC12CC3CC(CC(C3)C1)C2
Ki (Carbonic anhydrase 9): 0.0305 µM | Ki (Carbonic anhydrase 2): 4.96 µM | Ki (Carbonic anhydrase 14): 0.008 µM | Ki (Carbonic anhydrase 7): 0.00043 µM | Ki (Carbonic anhydrase 1): > 10 µM | Ki (Carbonic anhydrase 12): 0.0607 µM

O=S(=O)([O-])NC1CCCCC1.[Na+] [SODIUM CYCLAMATE]
Ki (Carbonic anhydrase 9): 0.0813 µM | Ki (Carbonic anhydrase 2): > 10 µM | Ki (Carbonic anhydrase 14): 0.0066 µM | Ki (Carbonic anhydrase 7): 0.00024 µM | Ki (Carbonic anhydrase 1): > 10 µM | Ki (Carbonic anhydrase 12): 0.0038 µM

From ChEMBL document CHEMBL3751826, “Sulfamide derivatives with selective carbonic anhydrase VII inhibitory action” (Bioorg Med Chem, 2016)
